Data published in patent publication US10800806B2, “Sterol derivatives and use thereof for treating diseases involving transformed astrocyte cells or for treating malignant haemopathies” (BETA INNOV, priority 2012, dated 2020).

Legend:
[1] = tested on: colon cancer cells (ECACC-HT29/219); assay: Activity in vitro on colon cancer cells; type: cell-based, human; settings: 15 μM, improved liposomal form
Text: They were obtained from the ECACC collection (Ref. ECACC-85061109). The culture conditions are based on the recommendations in the Sigma-Aldrich information leaflet. • Neuroblastoma (line SH-SY5Y)
(§1) The cancer cells used are from liver (ref. ATCC-HB-8065), prostate (ref. ATCC-HTB-81), breast (ref. ATCC-HTB-19) cancer cells, and from colon cancer cells (ECACC-HT29/219) of human origin, mentioned above.

[2] = tested on: liver cancer cells (ATCC-HB-8065); assay: Activity in vitro on liver cancer cells; type: cell-based, human; settings: 30 μM, ethanolic form
Protocol: They were obtained from ATCC (ref. ATCC-HB-8065). The culture medium consists of MEM (Gibco, USA; ref. 51200) and 10% (v/v) FCS. The doubling time is 60 h. • Prostate cancer cells
as §1

[3] = tested on: white blood cells from a patient suffering from CMML; assay: Activity in vitro on Chronic Myelomonocytic Leukaemia (CMML) cells; type: cell-based, human; settings: 10 μM once, improved liposomal form, 72 h of treatment
Protocol: The cells purified from blood samples of patients suffering from Chronic Myelomonocytic Leukaemia (CMML) were obtained by the Clinical Haematology Centre and the Biotherapy Centre of the Saint Eloi Hospital (CHU de Montpellier). Culture was carried out by the technique of seeding on a feed layer. […] The CMML cells were cultured on cell lines originating from human embryo spinal cord (17).
The white blood cells are isolated from a blood sample collected from a patient suffering from CMML. The cells are treated once with 10 μM of molecule 2.b in improved liposomal form 24 hours after culturing by seeding on a feed layer (17).
The controls are cells treated with empty liposomes: the upper left hand photograph marked with the letter A was taken after 48 h of treatment and the lower left hand photograph with the letter B after 72 h of treatment.
For the cells treated with 2.b, the upper right hand photograph marked with the letter C was taken after 48 h of treatment and the lower right hand photograph with the letter D after 72 h of treatment.

[4] = tested on: partially purified LDH from human GBM lines (U87-MG); assay: Inhibition of LDH activity, in gel assay after IEF; type: biochemical; settings: ethanolic form, 36 mM
Protocol: Next, the LDH activities and their inhibition were detected by the “in gel assay” technique (25). The source of activity used was LDH LL and LDH, partially purified, from human GBM lines U87-MG (LDH GBM). “In gel assay” detection was carried out after isoelectric focusing (IEF) on electrophoresis gels of the LDH LL and LDH GBM samples.
The cells collected in phosphate buffer (50 mM, Ph 7.2.Pi) undergo several freeze (−20° C.)/thaw cycles and the cellular material is homogenized. After centrifugation at 10,000 g for 45 min at 4° C., the supernatant is collected and aliquots containing 10% glycerol (v:v) are frozen at −80° C. At the desired time, the aliquots, after thawing, are chromatographed on a filtration column (Biogel P-60, BioRad) prepared in Pi. The volume of gel is 9 ml and the inside diameter of the column is 0.4 cm. Elution is carried out at atmospheric pressure. […]
The LDH activity is detected by the lactate/NAD/MTT/phenazine methosulphate system (formation of a precipitate of the formazan type in the IEF gel); this system is described in reference (25). […]
The activity of LDH is detected by the “in gel assay” technique on IEF electrophoresis gels, which were described in the section “A/ PROTOCOLS 6)” (25); the precision of this technique is 0.2 unit of pH. The activity of LDH is detected by a dark blue precipitate, of the formazan type, the site where LDH activity is located.

Structure (SMILES): CC(=O)OC1C=C2CC(OC(=O)C3COC(C)(C)O3)CCC2(C)C2CCC3(C)C(C(C)CCCC(C)C)CCC3C12 (stereo not shown) [Molecule 2.b, 7-acetoxy-10,13-dimethyl-17-(6-methylheptan-2-yl)-2,3,4,7,8,9,10,11,12,13,14,15,16,17-tetradecahydro-1H-cyclopenta[a]phenanthren-3-yl 2,2-dimethyl-1,3-dioxolane-4-carboxylate]
- toxicity to colon cancer cells [1]: not toxic
- effect on cellular division and respiration [2]: no effect
- effect on cell multiplication relative to the control [3]: Cell multiplication is slowed considerably
- inhibition of the enzymatic activity of LDH GBM [4]: partially
